# Test results as given in ChEMBL document CHEMBL3739371, “Small molecules enhance functional O-mannosylation of Alpha-dystroglycan” (Bioorg Med Chem, 2015).
# Tests used:
# [1] = target: T1, Dystroglycan (Cricetulus griseus) (UniProt G3H8F4); assay: Increase of functional O-mannosylation of alpha-dystroglycan in Chinese hamster pro5 cells expressing LARGE after 48 hrs by alpha-screen assay; assay type: cell-based
# T1 sequence (whole entry): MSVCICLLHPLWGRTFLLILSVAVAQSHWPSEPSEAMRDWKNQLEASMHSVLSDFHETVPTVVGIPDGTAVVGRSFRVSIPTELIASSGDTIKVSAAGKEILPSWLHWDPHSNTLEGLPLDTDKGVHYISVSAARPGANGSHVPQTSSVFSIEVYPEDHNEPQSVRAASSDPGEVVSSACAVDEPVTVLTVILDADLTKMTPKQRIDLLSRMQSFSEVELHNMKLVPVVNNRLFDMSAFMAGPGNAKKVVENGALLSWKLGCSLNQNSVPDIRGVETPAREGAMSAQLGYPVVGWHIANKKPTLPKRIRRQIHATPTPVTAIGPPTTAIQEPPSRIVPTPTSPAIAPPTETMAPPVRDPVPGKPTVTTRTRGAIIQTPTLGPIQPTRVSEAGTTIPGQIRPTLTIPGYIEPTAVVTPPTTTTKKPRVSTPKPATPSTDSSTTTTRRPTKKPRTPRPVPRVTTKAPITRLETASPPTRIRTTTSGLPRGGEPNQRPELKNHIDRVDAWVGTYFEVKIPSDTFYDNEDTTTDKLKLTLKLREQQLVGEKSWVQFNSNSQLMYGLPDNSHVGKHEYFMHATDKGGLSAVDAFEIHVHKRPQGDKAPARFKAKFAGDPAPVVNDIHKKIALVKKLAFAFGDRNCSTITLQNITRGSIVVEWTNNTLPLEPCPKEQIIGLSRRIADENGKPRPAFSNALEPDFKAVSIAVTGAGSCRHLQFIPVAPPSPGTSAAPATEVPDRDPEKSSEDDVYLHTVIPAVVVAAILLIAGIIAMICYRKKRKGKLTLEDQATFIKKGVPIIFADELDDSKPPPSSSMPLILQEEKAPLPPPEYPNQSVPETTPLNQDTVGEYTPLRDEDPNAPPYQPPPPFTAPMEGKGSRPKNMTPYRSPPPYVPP
# [2] = target: T2, Dystroglycan 1 (Mus musculus) (UniProt Q62165); assay: Increase of functional O-mannosylation of alpha-dystroglycan in mouse C2C12 cells expressing LARGE at 10 uM after 48 hrs by alpha-screen assay relative to control; assay type: cell-based
# T2 sequence (whole entry): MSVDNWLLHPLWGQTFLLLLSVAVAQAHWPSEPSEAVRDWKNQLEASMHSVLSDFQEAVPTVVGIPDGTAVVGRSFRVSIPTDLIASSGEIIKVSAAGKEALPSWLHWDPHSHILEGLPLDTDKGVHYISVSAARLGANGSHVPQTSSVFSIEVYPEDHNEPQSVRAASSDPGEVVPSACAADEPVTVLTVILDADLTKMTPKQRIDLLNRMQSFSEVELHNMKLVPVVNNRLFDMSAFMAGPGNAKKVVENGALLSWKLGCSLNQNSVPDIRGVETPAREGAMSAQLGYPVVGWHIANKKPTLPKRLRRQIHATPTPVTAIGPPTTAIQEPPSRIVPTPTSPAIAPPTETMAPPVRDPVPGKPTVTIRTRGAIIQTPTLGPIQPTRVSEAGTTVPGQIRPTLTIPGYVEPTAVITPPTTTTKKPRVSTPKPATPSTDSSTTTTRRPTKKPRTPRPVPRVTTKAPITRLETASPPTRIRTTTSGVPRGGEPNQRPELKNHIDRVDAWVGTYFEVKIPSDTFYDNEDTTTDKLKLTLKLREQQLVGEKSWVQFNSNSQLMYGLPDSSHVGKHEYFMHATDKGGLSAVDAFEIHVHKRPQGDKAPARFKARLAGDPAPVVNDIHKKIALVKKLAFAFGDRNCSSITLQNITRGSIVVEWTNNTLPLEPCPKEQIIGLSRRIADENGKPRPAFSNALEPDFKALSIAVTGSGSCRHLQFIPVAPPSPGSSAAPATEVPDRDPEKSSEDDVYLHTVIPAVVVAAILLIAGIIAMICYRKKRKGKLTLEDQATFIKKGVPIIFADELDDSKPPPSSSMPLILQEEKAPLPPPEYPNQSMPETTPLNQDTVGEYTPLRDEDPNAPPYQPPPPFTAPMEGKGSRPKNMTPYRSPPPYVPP
SMILES,EC1.5 [1] [µM],Activity [2] [%]
CCC(c1nnnn1Cc1cccs1)N1CCN(c2nc3cc(F)ccc3s2)CC1 (configuration not stated),> 64,
CCC(c1nnnn1Cc1cccs1)N1CCN(c2nc3c(F)cc(F)cc3s2)CC1 (configuration not stated),17,
CCC(c1nnnn1Cc1cccs1)N1CCN(c2nc3ccc(NC(=O)CCCC[C@@H]4SC[C@@H]5NC(=O)N[C@@H]54)cc3s2)CC1 (some centres not stated),4.3,
CC(C)n1nnnc1CN1CCN(c2nc3ccccc3s2)CC1,> 64,
CCC(c1nnnn1Cc1cccs1)N1CCN(c2nc3cc([N+](=O)[O-])ccc3s2)CC1 (configuration not stated),> 64,
CCC(c1nnnn1Cc1cccs1)N1CCN(c2nc3ccc([N+](=O)[O-])cc3s2)CC1 (configuration not stated),32,
CCC(c1nnnn1Cc1ccccc1)N1CCN(c2nc3ccccc3s2)CC1 (configuration not stated),> 64,
CCC(c1nnnn1Cc1cccs1)N1CCN(c2nc3ccc(N)cc3s2)CC1 (configuration not stated),11,
CCC(c1nnnn1Cc1cccs1)N1CCN(c2nc3ccc(F)cc3s2)CC1 (configuration not stated),21,
CCCC(c1nnnn1Cc1cccs1)N1CCN(c2nc3ccccc3s2)CC1 (configuration not stated),34,
CCC(c1nnnn1Cc1cccs1)N1CCN(c2nc3ccc(C)cc3s2)CC1 (configuration not stated),15,
c1csc(Cn2nnnc2CN2CCN(c3nc4ccccc4s3)CC2)c1,8.7,37
CCC(c1nnnn1Cc1cccs1)N1CCN(c2nc3c(F)cccc3s2)CC1 (configuration not stated),4.9,
CCC(c1nnnn1-c1ccccc1)N1CCN(c2nc3ccccc3s2)CC1 (configuration not stated),> 64,
CCC(c1nnnn1Cc1cccs1)N1CCN(c2nc3ccccc3[nH]2)CC1 (configuration not stated),17,
CCC(c1nnnn1Cc1cccs1)N1CCC(c2nc3ccccc3s2)CC1 (configuration not stated),9.6,
CCC(c1nnnn1Cc1cccs1)N1CCN(c2nc3ccccc3o2)CC1 (configuration not stated),9.5,
CCC(c1nnnn1Cc1nccs1)N1CCN(c2nc3cccc(F)c3s2)CC1 (configuration not stated),43,
CCC(c1nnnn1Cc1cccs1)N1CCN(c2nc3ccc(OC)cc3s2)CC1 (configuration not stated),7.1,
Fc1ccc(Cn2nnnc2CN2CCN(c3nc4ccccc4s3)CC2)cc1,> 64,
CCC(c1ccc(-c2nc3ccccc3s2)cc1)c1nnnn1Cc1cccs1 (configuration not stated),49,
CCC(c1nnnn1Cc1cccs1)N1CCN(c2nc3ccc(NC(=O)c4ccccc4C)cc3s2)CC1 (configuration not stated),> 64,
CCC(c1nnnn1CCc1cccs1)N1CCN(c2nc3cccc(F)c3s2)CC1 (configuration not stated),64,
c1ccc(C(c2nnnn2Cc2cccs2)N2CCN(c3nc4ccccc4s3)CC2)cc1 (configuration not stated),> 64,
CCC(c1nnnn1Cc1cccs1)N1CCN(c2nc3ccccc3s2)CC1 (configuration not stated),4.6,56

SMILES,EC1.5 [1] [µM],Activity [2] [%]
CCC(NCCNc1nc2cccc(F)c2s1)c1nnnn1Cc1cccs1 (configuration not stated),> 64,
CCC(c1nnnn1Cc1cccs1)N1CCN(c2nc3ccc(C(=O)O)cc3s2)CC1 (configuration not stated),19,
c1ccc2sc(N3CCN(Cc4nnnn4C4CCCC4)CC3)nc2c1,> 64,
CCC(c1nnnn1Cc1cccs1)N1CCN(c2nc3ccc(-c4ccccc4)cc3s2)CC1 (configuration not stated),> 64,
O=C(c1nnnn1Cc1cccs1)N1CCN(c2nc3ccccc3s2)CC1,> 64,
CCC(c1nnnn1Cc1cccs1)N1CCN(c2nc3cccc(O)c3s2)CC1 (configuration not stated),21,
CC(C)CC(c1nnnn1Cc1cccs1)N1CCN(c2nc3ccccc3s2)CC1 (configuration not stated),> 64,
CCC(c1nnnn1Cc1cccs1)N1CCN(c2nc3cc(N)ccc3s2)CC1 (configuration not stated),3.4,
CCC(c1nnnn1Cc1cccs1)N1CCN(c2nc3cccc(F)c3s2)CC1 (configuration not stated),2.6,
CCC(c1nnnn1Cc1cccs1)N1CCN(c2nc3cccc(Br)c3s2)CC1 (configuration not stated),22,
CCC(c1nnnn1Cc1cccs1)N1CCN(c2nc3cccc(C(F)(F)F)c3s2)CC1 (configuration not stated),25,
CCC(c1nnnn1Cc1cccs1)N1CCN(c2nc3ccc(Cl)cc3s2)CC1 (configuration not stated),13,
CCC(c1nnnn1Cc1cccs1)N1CCN(Cc2nc3ccccc3s2)CC1 (configuration not stated),64,
CCC(c1nnnn1Cc1cccs1)N1CCN(c2nc3ccc(C(=O)OC)cc3s2)CC1 (configuration not stated),28,
CCC(c1nnnn1Cc1cccs1)N1CCN(c2nc3cccc(C(=O)OC)c3s2)CC1 (configuration not stated),14,
CCC(c1nnnn1Cc1ccco1)N1CCN(c2nc3ccccc3s2)CC1 (configuration not stated),9.5,
CCC(c1nnnn1Cc1cccs1)N1CCN(c2nc3cc([N+](=O)[O-])cc(F)c3s2)CC1 (configuration not stated),25,
CCC(c1cnnn1Cc1cccs1)N1CCN(c2nc3ccccc3s2)CC1 (configuration not stated),48,
CCC(c1nnnn1Cc1cccs1)N1CCN(c2nc3ccc(NC(=O)c4ccccc4Cl)cc3s2)CC1 (configuration not stated),> 64,
COc1ccc(Cn2nnnc2CN2CCN(c3nc4ccccc4s3)CC2)cc1,> 64,
CC(c1nnnn1Cc1cccs1)N1CCN(c2nc3ccccc3s2)CC1 (configuration not stated),7.2,
CCC(c1nnnn1Cc1cccs1)N1CCN(c2nc3cccc(C(=O)O)c3s2)CC1 (configuration not stated),22,
CCC(c1nnnn1Cc1cccs1)N1CCN(C2=Nc3ccccc3C2)CC1 (configuration not stated),28,
CCC(c1nnnn1Cc1cccs1)N1CCN(c2nc3cc(OC)c(OC)c(OC)c3s2)CC1 (configuration not stated),6.5,
CCC(c1nnnn1Cc1cccs1)N1CCN(c2nc3c(N)cccc3s2)CC1 (configuration not stated),16,
